Measurements taken from patent US20260133203A1, “DETECTION OF FUMARATE-DERIVED MODIFICATION IN A TEST SAMPLE” (UNIVERSITY OF SOUTH CAROLINA, priority 2017, published 2026).
Structures can show the parent of a compound that is named as a salt.

System: rat primary neurons
Experiment: Western blot detection of succinated proteins with anti-2SC antibody, without ester hydrolysis
Type: cell-based
Conditions: 100 μM DMF, 24 hours, absence of ester hydrolysis
Protocol: Primary neurons from newborn rat brain cortices were isolated and cultured using an adaptation of methods described previously. Briefly, postnatal day 1 rats were sacrificed by decapitation, the brains were aseptically dissected, and cortices were separated from the rest of the brain in ice-cold Hibernate®-A medium (Life Technologies) containing 2% (v/v) B-27 supplement (Life Technologies) and 0.5 mM glutamine (Invitrogen™). The tissue was minced in fragments of about 1 mm3 with a scalpel and subjected to digestion with 2 mg/ml papain (Worthington) in the supplemented Hibernate®-A medium for 20 minutes at 30° C. in a shaker incubator set at 100 rpm. After thorough trituration through a fire-polished Pasteur pipette, the tissue was allowed to settle for 5 minutes and the supernatant was carefully layered on top of a discontinuous OptiPrep™ (Sigma-Aldrich™) gradient prepared in Hibernate®-A medium; the layers contained 35, 25, 20 and 15% OptiPrep™. […] After a centrifugation at 500 g for 5 min at room temperature, cells were resuspended in Neurobasal™—A medium containing 0.5 mM glutamine, 2% B-27 supplement, and 5 ng/ml bFGF (Invitrogen™); counted and plated on 24-well plates pretreated with 0.01% poly-L-lysine (Sigma-Aldrich™) at a density of 200,000 cells/well. […] The protein content in the different samples was determined by the Lowry assay. […]

In the case of COC(=O)/C=C/C(=O)OC [DMF, dimethyl fumarate], the “detection of succinated proteins using the anti-2SC antibody” value is reported as “only one band ˜50 kDa showing a significant increase in intensity”.
